The data set in a line: solvent given as SMILES.
Setting [1] is: in O=P(c1ccccc1)(c1ccccc1)c1ccccc1Oc1ccccc1P(=O)(c1ccccc1)c1ccccc1.

For `CSc1sc(C(N)=O)c2nnn(C)c(=O)c12`, the fluorescence lifetime is, setting by setting: (in C1CCOC1) 19 ns; (in CC#N) 21 ns; (in CCO) 14 ns; (in CN(C)C=O) 15 ns; (in CO) 11 ns; (in CS(C)=O) 5.4 ns.
The molecule `Cc1ccc(-c2ccc(/C=C/c3ccc([N+](=O)[O-])cc3)cn2)nc1` gave a fluorescence lifetime (in CC#N) of 0.31 ns.
For the molecule `CCn1c2ccccc2c2cc(C#Cc3cc(C#Cc4ccc5c(c4)c4ccccc4n5CC)ncn3)ccc21`, for the setting “in C1CCOC1”, the fluorescence lifetime was determined as 2.32 ns.
Under “in C1CCCCC1”, `Oc1cccc2ccccc12` came in with a fluorescence lifetime of 15 ns.
As for `CC1(C)c2ccccc2N(c2ccc3c(c2)Oc2ccccc2S3(=O)=O)c2ccccc21`, the fluorescence lifetime under setting [1] amounted to 29 ns.
Consider `CSc1ccc2c(c1)N(CCCN1CCN(C)CN1C)c1ccccc1S2`, for which the fluorescence lifetime is, setting by setting: (in CC#N) 1.03 ns; (in CO) 0.96 ns; (in O) 1.47 ns.
`COC(C)CC1=N/C(=C\c2cccc(N(C)C)c2)C(=O)N1C` (stereo not drawn): the fluorescence lifetime came out at 15.3 ns (in C1CCOC1), 7.7 ns (in CC#N) and 22.4 ns (in CCCCCC).
For the molecule `CC(C)(C)c1cc(-n2c(-c3ccc(C(=C(c4ccccc4)c4ccccc4)c4ccccc4)cc3)cc3c2cc(-c2ccc(C(=C(c4ccccc4)c4ccccc4)c4ccccc4)cc2)n3-c2cc(C(C)(C)C)cc(C(C)(C)C)c2)cc(C(C)(C)C)c1`, the fluorescence lifetime (in ClCCl) turned out to be 0.063 ns.
For the molecule `[O-]c1ccc2ccccc2c1`, the fluorescence lifetime (in O) worked out at 9.43 ns.
For the setting “in ClCCCl”, `N#Cc1ccc2nc3[nH]c(=O)[nH]c(=O)c3nc2c1` registered a fluorescence lifetime of 0.18 ns.
`F[B-]1(F)OC(c2ccc(C(F)(F)F)cc2)=Cc2cc(Cl)nc[n+]21` yielded a fluorescence lifetime (in C1CCOC1) of 0.13 ns and a fluorescence lifetime (in Cc1ccccc1) of 0.21 ns.
For the molecule `CCCCN1C(=O)c2cc(Oc3ccc(C(C)(C)C)cc3)c3c4c(Oc5ccc(C(C)(C)C)cc5)c(Oc5ccc(C(C)(C)C)cc5)c5c6c(cc(Oc7ccc(C(C)(C)C)cc7)c(c7c(Oc8ccc(C(C)(C)C)cc8)c(Oc8ccc(C(C)(C)C)cc8)c(c2c37)C1=O)c64)C(=O)N(CCCC)C5=O`, where the note is “in ClC(Cl)Cl”, the fluorescence lifetime worked out at 6.3 ns.
With `CN(C)c1ccc2nc(-c3ccc(C=C4C(=O)c5ccccc5C4=O)cc3)sc2c1`, where the note is “in C1CCCCC1”, the fluorescence lifetime was found to be 0.41 ns.
With `Nc1ccc2c(c1)-c1ccccc1C2=O`, the fluorescence lifetime stood at 5.9 ns (in CC#N) and 11 ns (in c1ccccc1).
In the case of `O=c1oc2cc(S(=O)(=O)O)c3ccccc3c2nc1-c1ccccc1`, the fluorescence lifetime (in CC#N) was 4.5 ns.
The molecule `CCOC(=O)c1csc2[n+]1[B-](F)(F)OC(c1ccc(N(C)C)cc1)=N2` registered a fluorescence lifetime (in C1CCOC1) of 2.1 ns.
As to `C[n+]1ccc2c(ccc3c[n+](C)c4ccc5ccccc5c4c32)c1`, where the note is “in CC#N”, the fluorescence lifetime came to 10.2 ns.
Where the note is “in C1CCOC1”, `c1ccc(C2=C(c3ccccc3)[Si](c3ccccc3)(c3ccccc3)c3ccccc32)cc1` showed a fluorescence lifetime of 1.98 ns.
For `CC(=O)OC[C@@H]1O[C@H](n2cnc3c2N=CN2Cc4c[n+](C)c(C)nc4N=C32)[C@@H](O)[C@H]1O`, the fluorescence lifetime runs as follows: (in CC#N) 3.5 ns; (in CCO) 3.24 ns; (in O) 3.28 ns.
Turning to `C(=C\c1c2ccccc2cc2ccccc12)/c1ccc2ccccc2c1`, the fluorescence lifetime is, setting by setting: (in CC1CCCCC1) 3.3 ns; (in CC#N) 3.6 ns.
Regarding `CCc1ccc(-n2c3ccccc3c3cc4c(cc32)c2ccccc2n4-c2ccc(CC)s2)s1`, the fluorescence lifetime (in ClC(Cl)Cl) is 0.63 ns.
In turn, `CN(C)c1ccc(/C=C/C=C/C=C/c2ccc(B(O)O)cc2)cc1` came in with a fluorescence lifetime (in C1CCCCC1) of 0.75 ns.
As for `O=C1c2ccccc2-c2c(-c3ccccc3)c(-c3ccccc3)c(-c3ccccc3)c3cccc1c23`, the fluorescence lifetime reads like this: (in CC#N) 0.6 ns; (in CO) 9.2 ns.
Consider `c1ccc2c(c1)OP1(=NP3(=NP(Oc4ccc5ccc6cccc7ccc4c5c67)(Oc4ccc5ccc6cccc7ccc4c5c67)=N1)Oc1ccccc1-c1ccccc1O3)Oc1ccccc1-2`, for which the fluorescence lifetime (in ClCCl) came out at 1.23 ns.
For the molecule `CNc1ccc2c(c1)C(=O)c1ccccc1-2`, the fluorescence lifetime reads like this: (in C1CCCCC1) 3.1 ns; (in c1ccccc1) 0.63 ns.
Take `c1ccc2c(c1)c1ccccc1n2-c1ccc2cc(-c3ccc(-c4ccc(-c5cc6ccc(-n7c8ccccc8c8ccccc87)cc6o5)cc4)cc3)oc2c1`: the fluorescence lifetime (in Cc1ccccc1) came out at 0.97 ns and the fluorescence lifetime (in c1ccc2c(c1)c1ccccc1n2-c1ccc(-c2ccc(-n3c4ccccc4c4ccccc43)cc2)cc1) was 1.5 ns.
In the case of `Cc1cc(C)n2c1C=C1c3ccccc3C(c3ccc[nH]3)=[N+]1[B-]2(F)F`, the fluorescence lifetime came out at 7.36 ns (in C1CCOC1); 7.41 ns (in CC#N); 7.93 ns (in CCCCCC); 7.47 ns (in CO); 6.82 ns (in Cc1ccccc1); 7.28 ns (in ClCCl).
For the setting “in Cc1ccccc1”, `COc1ccc(N(c2ccccc2)c2ccccc2)cc1` had a fluorescence lifetime of 1.89 ns.
In the case of `NCCc1c[nH]c2ccc(O)cc12`, the fluorescence lifetime is, setting by setting: (in CC#N) 4.1 ns; (in CC(C)O) 4.28 ns; (in CO) 4.04 ns; (in O) 3.94 ns.
Turning to `Cn1c2ccccc2c(=O)c2ccccc21`, the fluorescence lifetime (in CS(C)=O) was 8.85 ns.
With `Cn1nc(-c2ccccc2)c2nc3cc(F)ccc3nc21`, the fluorescence lifetime reads like this: (in C1CCCCC1) 23 ns; (in C1CCOC1) 23 ns; (in CC#N) 10.1 ns.
In turn, `CCCCCCCCN1C(=O)c2ccc3c4c(-c5ccc6c(c5)c5ccccc5n6-c5ccccc5)cc5c6c(cc(-c7ccc8c(c7)c7ccccc7n8-c7ccccc7)c(c7ccc(c2c37)C1=O)c64)C(=O)N(CCCCCCCC)C5=O` registered a fluorescence lifetime (in ClC(Cl)Cl) of 4.1 ns.
With `COc1cccc(-[c+]2c3ccccc3oc3ccccc32)c1`, the fluorescence lifetime (in CC#N) came out at 0.028 ns.
Same read-out and setting: as for `COc1ccc(C2=[O+][B-](F)(F)OC(c3ccc4c(c3)Cc3ccccc3-4)=C2)cc1`, the figure is 1.6 ns.
With `COc1ccc(/C2=C3N=C(C(c4ccccc4)=C/3c3ccccc3)/C(c3ccc(OC)cc3)=c3\[nH]/c(c(-c4ccccc4)c3-c3ccccc3)=C(/c3ccc(OC)cc3)C3=N/C(=C(/c4ccc(OC)cc4)c4[nH]c2c(-c2ccccc2)c4-c2ccccc2)C(c2ccccc2)=C3c2ccccc2)cc1`, under “in ClCCl”, the fluorescence lifetime was 0.921 ns.
With `CC1=[N+]2C(=C(Oc3ccc4c(c3)CC[C@@H]3[C@@H]4CC[C@]4(C)C(=O)CC[C@@H]34)c3ccc(C)n3[B-]2(F)F)C=C1c1cc2n(c1)[B-](F)(F)[N+]1=CC=CC1=C2c1c(C)cc(C)cc1C`, the fluorescence lifetime by setting is: (in C1CCCCC1) 2.7 ns; (in CCOC(C)=O) 0.911 ns.
In turn, `Cc1cc2cc3cc(C)c(C)cc3cc2cn1` came in with a fluorescence lifetime (in CCO) of 18 ns.
Consider `N#Cc1cc(C#N)cc(-n2c3ccccc3c3cc(-c4ccc5c(c4)c4ccccc4n5-c4cc(C#N)cc(C#N)c4)ccc32)c1`, for which, for the setting “in Cc1ccccc1”, the fluorescence lifetime was 24 ns.
In the case of `N#Cc1cccc2[nH]ccc12`, the fluorescence lifetime turned out to be 5.3 ns (in C1CCOC1); 5.3 ns (in C1COCCO1); 5.4 ns (in CC#N); 5.7 ns (in CC(C)O); 5.7 ns (in CCO); 5.8 ns (in CO). The fluorescence lifetime turned out to be 7.4 ns (in CS(C)=O); 7.8 ns (in NC=O); 9.1 ns (in O); 6.3 ns (in OCC(F)(F)F); 9.3 ns (in [2H]O[2H]).
`CC1(C)c2ccccc2-c2cc3c4ccccc4n(-c4ccc(-c5nc(-c6ccccc6)nc(-c6ccccc6)n5)cc4)c3cc21` returned a fluorescence lifetime under setting [1] of 9.3 ns.
For `Cc1cc(C)cc(NC(=O)c2sc(Br)nc2C)c1`, the fluorescence lifetime by setting is: (in CO) 0.33 ns; (in ClC(Cl)Cl) 0.18 ns.
In the case of `CC(C)(C)c1ccc(-c2nc3c4ccc(-c5cccc6ccccc56)cc4c4cc(-c5cccc6ccccc56)ccc4c3n2-c2ccc(C(C)(C)C)cc2)cc1`, where the note is “in ClCCl”, the fluorescence lifetime turned out to be 7.4 ns.
As for `COc1ccc(C#Cc2ccc(C#Cc3ccc(P(=O)(c4ccccc4)c4ccccc4)cc3)cc2)cc1`, the fluorescence lifetime is, setting by setting: (in C1CCCCC1) 0.63 ns; (in C1COCCO1) 0.73 ns; (in CC#N) 1.13 ns; (in CCO) 1.03 ns; (in CS(C)=O) 1.17 ns; (in ClC(Cl)Cl) 0.78 ns. For the setting “in ClCCl”, this molecule displayed a fluorescence lifetime of 0.87 ns.
Regarding `O=C(O)c1c2ccccc2nc2ccccc12`, the fluorescence lifetime was determined as 1.1 ns (in C1CCOC1); 0.9 ns (in C1COCCO1); 0.8 ns (in CC#N); 0.7 ns (in CCCCCO); 0.8 ns (in CCCCO); 0.7 ns (in CCCO). Further, the fluorescence lifetime by setting is: (in CCO) 0.6 ns; (in CO) 0.8 ns; (in COCCOC) 1.5 ns; (in ClC(Cl)Cl) 0.6 ns; (in ClCCl) 0.9 ns; (in OCCO) 0.8 ns.
As for `CC(C)(C)c1cc2cc(N(c3ccccc3)c3ccccc3)c3cc(C(C)(C)C)cc4cc(N(c5ccccc5)c5ccccc5)c(c1)c2c43`, the fluorescence lifetime (in CCCCCC) worked out at 4.6 ns.
Consider `c1ccc(-c2nn(-c3ccccc3)c3nc4ccc(-n5c6ccccc6c6ccccc65)cc4cc23)cc1`, for which the fluorescence lifetime is, setting by setting: (in C1CCCCC1) 17.6 ns; (in C1CCOC1) 19.1 ns; (in CC#N) 21.8 ns; (in CC(C)=O) 21.6 ns; (in CCCCCl) 19.1 ns; (in CCCCOCCCC) 19.4 ns. The fluorescence lifetime (in CN(C)C=O) was 20.2 ns.
`CC1(C)OB(c2cc3ccc4cc(B5OC(C)(C)C(C)(C)O5)cc5ccc(c2)c3c45)OC1(C)C` had a fluorescence lifetime (in Cc1ccccc1) of 36 ns.
`COc1ccc(N(c2ccccc2)c2cc3ccc4cc(N(c5ccccc5)c5ccc(OC)cc5)cc5ccc(c2)c3c45)cc1` showed a fluorescence lifetime (in Cc1ccccc1) of 18 ns.
For the molecule `CC(=O)Nc1ccc(S(=O)(=O)O)c(/N=N/c2c(O)c3ccccc3n(C)c2=O)c1`, the fluorescence lifetime (in CS(C)=O) came to 0.06 ns.
Consider `CC1=C(c2cccs2)C(C)=[N+]2C1=C(c1ccccc1)c1c(C)c(-c3cccs3)c(C)n1[B-]2(F)F`, for which the fluorescence lifetime (in Cc1ccccc1) is 3.4 ns.
As to `CCN(CC)c1ccc2c(c1)oc(=O)c1cnc3c(c(C)nn3-c3ccccc3)c12`, for the setting “in ClCCl”, the fluorescence lifetime stood at 3.34 ns.

For the origin of these results see the Deep4Chem optical property database.
